# Data as given in patent US20100267637A1, “TREATMENT OF MELANOMA WITH ALPHA THYMOSIN PEPTIDES IN COMBINATION WITH A KINASE INHIBITOR” (SciClone Pharmaceuticals, Inc., priority 2007, published 2010).
# Where no end group is shown, it is not given here.
# Tested on: murine B16 melanoma cells
# Assay: Anti-tumor effect: tumor size / tumor volume in mice bearing subcutaneous B16 melanoma
# Format: in vivo, C57BL/6 mice
# Set-up: key to Tumor measurement L (length) / Tumor measurement W (width): The sign “—” indicates that tumor does not reach a measurable size
# Conditions: for Tumor Volume (cm^3) (Mean ± SD): group mean; for PI (TV), percent inhibition of tumor volume: vs vehicle; for Tumor volumes on Day 15: Length × Width × Width/2
# Experimental: The toxic effects of the dosing regimens were also monitored. […] Meanwhile 9H10 was given in two groups via i.p. on Day 3, 6 and 9. […] Tumor volume and body weight were measured every three days, and tumor weights were measured on Day 16 at the end of the study.
# As per aseptic tissue culture procedures, one vial of B16 melanoma cells was removed from the liquid nitrogen stock, and placed into a 37° C. water bath. Gentle swirling was conducted until the content of the vial was thawed. Using tissue culture/sterile procedures, the cells were immediately centrifuged with a TD5A-WS centrifuge at 1000 rpm, 20-25° C., 5 min. After centrifugation, the cells were suspended in 0.1 to 0.5 mL normal saline (NS) and subcutaneously injected into 10 mice (0.1 mL/mouse, about 1×10^6 cells). After 7-10 days, when the tumor diameter was approximately 1 cm, the animals were euthanized with CO2 overdose and the tumors excised. The procedure was repeated with 20 mice to generate a sufficient number of B16 melanoma cells with adequate transplantability.
# On the day of tumor implantation, approximately 1×10^6 cells in 0.1 mL were subcutaneously injected on the right axillary area of each mouse. The day of tumor implantation was defined as Day 0.
# On Day 3, the animals were randomly assigned into nine different weight-matched and tumor-size-matched groups. Dosing was started on Day 3 using the regimen according to Table 2.
# From Day 1 to Day 15, mortality and moribundity were checked twice daily, the body weights were recorded once every 3 days, and tumors were measured using a caliper once every 3 days. At the end of the study (Day 16), the animals were euthanized by CO2 asphyxiation, and the tumors were excised and weighed.
# Based on the tumor size, the tumor volume (TV) was calculated with the formula: [TV=(Length×Width×Width)/2]. And the percent inhibition (PI) of TV (PITV) was calculated according to the equation below:
# PITV(%)=(TV vehicle−TVdrug treated)/TV vehicle×100
# Inter-group comparison was performed in terms of tumor volume, tumor weight and body weight, using a student's t test. P values of less than 0.05 were considered to be statistically significant.
substance,measurement,setting,value
"Thymosin Alpha-1 (Ac-SDAAVDTSSEITTKDLKEKKEVVEEAEN; ends and bridges not checked; UniProt P06454 2-29, looked up) [TA-1, 28 amino acid peptide, immunomodulator; test article (SciClone), 6 mg/kg s.c. daily]",Tumor measurement L (length),"Day 3, animal F1",—
same,Tumor measurement W (width),"Day 3, animal F1",—
same,Tumor volume,"Day 3, animal F1",0.0000 cm^3
same,Tumor measurement L (length),"Day 3, animal F2",—
same,Tumor measurement W (width),"Day 3, animal F2",—
same,Tumor volume,"Day 3, animal F2",0.0000 cm^3
same,Tumor measurement L (length),"Day 3, animal F3",—
same,Tumor measurement W (width),"Day 3, animal F3",—
same,Tumor volume,"Day 3, animal F3",0.0000 cm^3
same,Tumor measurement L (length),"Day 3, animal F4",0.10 cm
same,Tumor measurement W (width),"Day 3, animal F4",0.10 cm
same,Tumor volume,"Day 3, animal F4",0.0005 cm^3
same,Tumor measurement L (length),"Day 3, animal F5",—
same,Tumor measurement W (width),"Day 3, animal F5",—
same,Tumor volume,"Day 3, animal F5",0.0000 cm^3
same,Tumor measurement L (length),"Day 3, animal M1",—
same,Tumor measurement W (width),"Day 3, animal M1",—
same,Tumor volume,"Day 3, animal M1",0.0000 cm^3
same,Tumor measurement L (length),"Day 3, animal M2",—
same,Tumor measurement W (width),"Day 3, animal M2",—
same,Tumor volume,"Day 3, animal M2",0.0000 cm^3
same,Tumor measurement L (length),"Day 3, animal M3",—
same,Tumor measurement W (width),"Day 3, animal M3",—
same,Tumor volume,"Day 3, animal M3",0.0000 cm^3
same,Tumor measurement L (length),"Day 3, animal M4",—
same,Tumor measurement W (width),"Day 3, animal M4",—
same,Tumor volume,"Day 3, animal M4",0.0000 cm^3
same,Tumor measurement L (length),"Day 3, animal M5",—
same,Tumor measurement W (width),"Day 3, animal M5",—
same,Tumor volume,"Day 3, animal M5",0.0000 cm^3
same,Tumor Volume (cm^3) (Mean ± SD),Day 3,0.000 ± 0.0002 cm^3
same,"PI (TV), percent inhibition of tumor volume",Day 3,50.00%
same,Tumor measurement L (length),"Day 6, animal F1",—
same,Tumor measurement W (width),"Day 6, animal F1",—
same,Tumor volume,"Day 6, animal F1",0.0000 cm^3
same,Tumor measurement L (length),"Day 6, animal F2",—
same,Tumor measurement W (width),"Day 6, animal F2",—
same,Tumor volume,"Day 6, animal F2",0.0000 cm^3
same,Tumor measurement L (length),"Day 6, animal F3",—
same,Tumor measurement W (width),"Day 6, animal F3",—
same,Tumor volume,"Day 6, animal F3",0.0000 cm^3
same,Tumor measurement L (length),"Day 6, animal F4",—
same,Tumor measurement W (width),"Day 6, animal F4",—
same,Tumor volume,"Day 6, animal F4",0.0000 cm^3
same,Tumor measurement L (length),"Day 6, animal F5",—
same,Tumor measurement W (width),"Day 6, animal F5",—
same,Tumor volume,"Day 6, animal F5",0.0000 cm^3
same,Tumor measurement L (length),"Day 6, animal M1",—
same,Tumor measurement W (width),"Day 6, animal M1",—
same,Tumor volume,"Day 6, animal M1",0.0000 cm^3
same,Tumor measurement L (length),"Day 6, animal M2",—
same,Tumor measurement W (width),"Day 6, animal M2",—
same,Tumor volume,"Day 6, animal M2",0.0000 cm^3
same,Tumor measurement L (length),"Day 6, animal M3",—
same,Tumor measurement W (width),"Day 6, animal M3",—
same,Tumor volume,"Day 6, animal M3",0.0000 cm^3
same,Tumor measurement L (length),"Day 6, animal M4",—
same,Tumor measurement W (width),"Day 6, animal M4",—
same,Tumor volume,"Day 6, animal M4",0.0000 cm^3
same,Tumor measurement L (length),"Day 6, animal M5",—
same,Tumor measurement W (width),"Day 6, animal M5",—
same,Tumor volume,"Day 6, animal M5",0.0000 cm^3
same,Tumor Volume (cm^3) (Mean ± SD),Day 6,0.000 ± 0.0000 cm^3
same,"PI (TV), percent inhibition of tumor volume",Day 6,100.00%
same,Tumor measurement L (length),"Day 9, animal F1",0.10 cm
same,Tumor measurement W (width),"Day 9, animal F1",0.10 cm
same,Tumor volume,"Day 9, animal F1",0.0005 cm^3
same,Tumor measurement L (length),"Day 9, animal F2",0.10 cm
same,Tumor measurement W (width),"Day 9, animal F2",0.10 cm
same,Tumor volume,"Day 9, animal F2",0.0005 cm^3
same,Tumor measurement L (length),"Day 9, animal F3",0.10 cm
same,Tumor measurement W (width),"Day 9, animal F3",0.10 cm
same,Tumor volume,"Day 9, animal F3",0.0005 cm^3
same,Tumor measurement L (length),"Day 9, animal F4",0.20 cm
same,Tumor measurement W (width),"Day 9, animal F4",0.20 cm
same,Tumor volume,"Day 9, animal F4",0.0040 cm^3
same,Tumor volume,"Day 9, animal F5",0.0000 cm^3
same,Tumor measurement L (length),"Day 9, animal M1",0.10 cm
same,Tumor measurement W (width),"Day 9, animal M1",0.10 cm
same,Tumor volume,"Day 9, animal M1",0.0005 cm^3
same,Tumor measurement L (length),"Day 9, animal M2",0.20 cm
same,Tumor measurement W (width),"Day 9, animal M2",0.20 cm
same,Tumor volume,"Day 9, animal M2",0.0040 cm^3
same,Tumor measurement L (length),"Day 9, animal M3",0.50 cm
same,Tumor measurement W (width),"Day 9, animal M3",0.50 cm
same,Tumor volume,"Day 9, animal M3",0.0625 cm^3
same,Tumor measurement L (length),"Day 9, animal M4",0.20 cm
same,Tumor measurement W (width),"Day 9, animal M4",0.20 cm
same,Tumor volume,"Day 9, animal M4",0.0040 cm^3
same,Tumor measurement L (length),"Day 9, animal M5",0.30 cm
same,Tumor measurement W (width),"Day 9, animal M5",0.30 cm
same,Tumor volume,"Day 9, animal M5",0.0135 cm^3
same,Tumor Volume (cm^3) (Mean ± SD),Day 9,0.009 ± 0.0192 cm^3
same,"PI (TV), percent inhibition of tumor volume",Day 9,56.73%
same,Tumor volume,"Day 12, animal F1",0.0625 cm^3
same,"Tumor measurements on Day 12, L","Day 12, animal F1",0.50 cm
same,"Tumor measurements on Day 12, W","Day 12, animal F1",0.50 cm
same,Tumor volume,"Day 12, animal F2",0.0625 cm^3
same,"Tumor measurements on Day 12, L","Day 12, animal F2",0.50 cm
same,"Tumor measurements on Day 12, W","Day 12, animal F2",0.50 cm
same,Tumor volume,"Day 12, animal F3",0.0625 cm^3
same,"Tumor measurements on Day 12, L","Day 12, animal F3",0.50 cm
same,"Tumor measurements on Day 12, W","Day 12, animal F3",0.50 cm
same,Tumor volume,"Day 12, animal F4",0.1715 cm^3
same,"Tumor measurements on Day 12, L","Day 12, animal F4",0.70 cm
same,"Tumor measurements on Day 12, W","Day 12, animal F4",0.70 cm
same,Tumor volume,"Day 12, animal F5",0.0005 cm^3
same,"Tumor measurements on Day 12, L","Day 12, animal F5",0.10 cm
same,"Tumor measurements on Day 12, W","Day 12, animal F5",0.10 cm
same,Tumor volume,"Day 12, animal M1",0.0625 cm^3
same,"Tumor measurements on Day 12, L","Day 12, animal M1",0.50 cm
same,"Tumor measurements on Day 12, W","Day 12, animal M1",0.50 cm
same,Tumor volume,"Day 12, animal M2",0.1715 cm^3
same,"Tumor measurements on Day 12, L","Day 12, animal M2",0.70 cm
same,"Tumor measurements on Day 12, W","Day 12, animal M2",0.70 cm
same,Tumor volume,"Day 12, animal M3",0.3645 cm^3
same,"Tumor measurements on Day 12, L","Day 12, animal M3",0.90 cm
same,"Tumor measurements on Day 12, W","Day 12, animal M3",0.90 cm
same,Tumor volume,"Day 12, animal M4",0.0625 cm^3
same,"Tumor measurements on Day 12, L","Day 12, animal M4",0.50 cm
same,"Tumor measurements on Day 12, W","Day 12, animal M4",0.50 cm
same,Tumor volume,"Day 12, animal M5",0.3645 cm^3
same,"Tumor measurements on Day 12, L","Day 12, animal M5",0.90 cm
same,"Tumor measurements on Day 12, W","Day 12, animal M5",0.90 cm
same,Tumor Volume (cm^3) (Mean ± SD),Day 12,0.139 ± 0.1301 cm^3
same,"PI (TV), percent inhibition of tumor volume",Day 12,59.58%
same,"Tumor measurements on Day 15, L","Day 15, animal F1",0.70 cm
same,Tumor volumes on Day 15,"Day 15, animal F1",0.1715 cm^3
same,"Tumor measurements on Day 15, W","Day 15, animal F1",0.70 cm
same,"Tumor measurements on Day 15, L","Day 15, animal F2",0.70 cm
same,Tumor volumes on Day 15,"Day 15, animal F2",0.1260 cm^3
same,"Tumor measurements on Day 15, W","Day 15, animal F2",0.60 cm
same,"Tumor measurements on Day 15, L","Day 15, animal F3",0.60 cm
same,Tumor volumes on Day 15,"Day 15, animal F3",0.1080 cm^3
same,"Tumor measurements on Day 15, W","Day 15, animal F3",0.60 cm
same,"Tumor measurements on Day 15, L","Day 15, animal F4",1.00 cm
same,Tumor volumes on Day 15,"Day 15, animal F4",0.2450 cm^3
same,"Tumor measurements on Day 15, W","Day 15, animal F4",0.70 cm
same,"Tumor measurements on Day 15, L","Day 15, animal F5",0.30 cm
same,Tumor volumes on Day 15,"Day 15, animal F5",0.0135 cm^3
same,"Tumor measurements on Day 15, W","Day 15, animal F5",0.30 cm
same,"Tumor measurements on Day 15, L","Day 15, animal M1",0.70 cm
same,Tumor volumes on Day 15,"Day 15, animal M1",0.1715 cm^3
same,"Tumor measurements on Day 15, W","Day 15, animal M1",0.70 cm
same,"Tumor measurements on Day 15, L","Day 15, animal M2",1.00 cm
same,Tumor volumes on Day 15,"Day 15, animal M2",0.5000 cm^3
same,"Tumor measurements on Day 15, W","Day 15, animal M2",1.00 cm
same,"Tumor measurements on Day 15, L","Day 15, animal M3",1.00 cm
same,Tumor volumes on Day 15,"Day 15, animal M3",0.5000 cm^3
same,"Tumor measurements on Day 15, W","Day 15, animal M3",1.00 cm
same,"Tumor measurements on Day 15, L","Day 15, animal M4",1.00 cm
same,Tumor volumes on Day 15,"Day 15, animal M4",0.4050 cm^3
same,"Tumor measurements on Day 15, W","Day 15, animal M4",0.90 cm
same,"Tumor measurements on Day 15, L","Day 15, animal M5",1.00 cm
same,Tumor volumes on Day 15,"Day 15, animal M5",0.5000 cm^3
same,"Tumor measurements on Day 15, W","Day 15, animal M5",1.00 cm
same,Tumor Volume (cm^3) (Mean ± SD),Day 15,0.274 ± 0.1855 cm^3
same,"PI (TV), percent inhibition of tumor volume",Day 15,62.57%
same,effect on tumor growth in words,daily dosing Days 3-15,effective against the tumor growth
same,reduction of mean tumor volume in comparison to vehicle control,"throughout the course of the study, 6 mg/kg s.c. daily",50-60%
